This passage reports EC50 and melting point results from patent US20120128630A1, “1-(6 MEMBERS AZO-HETEROCYCLIC)-PYRROLIN-2-ONE COMPOUNDS AS INHIBITORS OF HEPATITIS C NS5B POLYMERASE, THE PHARAMACEUTICAL COMPOSITION THEREOF AND THEIR THERAPEUTIC USE” (priority 2009, published 2012).

One series deals with T1, HCV NS5B genotype 1b (Hepatitis C virus genotype 1b, UniProt Q9WMX2).
T1 construct: The protein was expressed with a 21 amino acid C-terminal deletion to remove transmembrane domain; expressed in transfected cells; host or cells: Huh-7
Nature of the series: 3D-SCREEN assay (NS5B 3D-Screen platform, luciferase reporter gene). In kind it is cell-based. Particulars: Table 2, titled Replicon assay results. In a few lines: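 Huh-7 cells transiently co-transfected with NS5BΔ21/Gal4-DBD, 3D-Sensor peptide I4/VP16 and firefly luciferase reporter. Compounds added 2 h after seeding, 1% DMSO final, 24 h incubation. Luciferase luminescence read; % inhibition relative to no-compound signal.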
(A reporter such as luciferase makes a cellular process visible.)

Another series concerns HCV replicon Luc Neo ET. The series can be described thus: Luc Neo ET Replicon assay. Particulars: Table 3, titled RdRp enzyme assay results, EC50_Replicon LucneoET, 72 hours with compound, luciferase. In kind it is cell-based, Hepatitis C virus. The procedure: Human Hepatoma Huh-7 cell line was maintained in DMEM/HAMF-12 supplemented with 10% SVF, 4 mM glutamine, […] Na pyruvate, 1% penistreptomycine. HCV replicon containing Huh-7 cell lines Huh-9.13 and Luc Neo ET (Reblikon) were maintained in DMEM supplemented with 10% SVF, 2 mM glutamine, and 1×NEAA, 100 U/ml penicillin, and 100 μg/ml streptomycine. Replicon cells were maintained in medium supplemented with 1 mg/ml G418 for replicon Huh-9.13 and 0.5 mg/ml for Luc Neo et replicon unless indicated otherwise. Huh-7 and HCV replicon cell lines were maintained at 37° C. and 5% CO2 in a humidified atmosphere. Cells were dissociated at sub confluence with trypsin EDTA 1×.
Replicon Luc Neo ET is a bicistronic expression constructs (Lohmann et al, 1999, Science 285, 110-113). In brief, the structural genes of the HCV genome were replaced by heterologous sequences; the gene encoding the neomycin phosphotransferase (NPT) and the internal ribosome entry site (IRES) of the encephalomyocarditis virus (EMCV). The bicistronic construct is therefore composed of the following elements: HCV-IRES nucleotides 1-389, the NPT gene, the EMCV-IRES directing translation of downstream HCV sequences from NS2 or NS3 up to the authentic 3′ end of the genome. HCV Polyprotein harbours the cell culture adaptive mutations E1202G, T1280I, K1846T. G418-resistance is only possible with cells containing high amounts of replicon.
Cells were dissociated the day before addition of compounds and seeded in 96 well-plates at a final concentration of 77 777.77 cells.ml^−1.well^−2 in 90 μl final volume of culture medium per well and were maintained at 37° C. and 5% CO2 in a humidified atmosphere for 24 hours. 10 μl of compounds to be tested were added 24 hours after seeding. Final concentration of DMSO was 1%. Cells were incubated in the presence of compounds for 72 hours after which expression of firefly luciferase reporter gene was quantified. Briefly, culture medium was removed and cells were lysed by addition of 100 μl of lysis buffer containing 125 mM Tris Phosphate ph 7.8, 10 mM EDTA, 5 mM DTT, 50% glycerol and 5% Triton. Plates were vortexed 10 min at 1300 rpm. Cell lysat was transferred in OpaqueWhite Assay 96 well Flat Bottom plates. 100 μl of luciferin solution 1× were added to each well. Luciferin solution contained 40 mM Tris Phosphate ph 7.8, 0.2 mM EDTA, 67 mM DTT, 2.14 mM MgCl2, 5.4 mM MgSO4, 4.7×10^−4 M luciferin, 5.3×10^−4 M ATP and 2.7×10^−4 M Acetyl co enzyme A. Luminescence was immediately measured with Berthold Microlumat Plus LB 96V luminometer with an integration of 0.5 sec Inhibition was calculated using the formula:
% inhibition=1−[(RLUsample−RLUbackground)/(RLUsignal−RLUbackground)]

Broadly, the melting point is the temperature, or range, at which the solid turns liquid.

Like-named read-outs stand apart in the source and are kept apart here.

On to `CCc1ccc(C2C(C(=O)c3ccc(C(C)C)cc3)=C(O)C(=O)N2c2ccc(C)nn2)cc1` (stereo not drawn) [Example 105, 5-(4-ethyl-phenyl)-3-hydroxy-4-(4-isopropyl-benzoyl)-1-(6-methyl-pyridazin-3-yl)-1,5-dihydro-pyrrol-2-one], for which the melting point was in the range of 282 to 284 °C. At HCV NS5B genotype 1b (EC50_3DS_NS5B), this compound registered an EC50 below 1000 nM. The EC50 in the series with HCV replicon Luc Neo ET (Hepatitis C virus, 72 h) was below 1000 nM.

In turn, `CC(C)c1ccc(C(=O)C2=C(O)C(=O)N(c3ccc(Sc4ccc([N+](=O)[O-])cc4)nn3)C2c2ccc(OC(F)(F)F)cc2)cc1` (stereo not drawn) [Example 119, 3-hydroxy-4-(4-isopropyl-benzoyl)-1-[6-(4-nitro-phenylsulfanyl)-pyridazin-3-yl]-5-(4-trifluoromethoxy-phenyl)-1,5-dihydro-pyrrol-2-one] showed a melting point of 194 to 209 °C. The compound also yielded an EC50 on HCV NS5B genotype 1b (EC50_3DS_NS5B) below 1000 nM. Moreover, the EC50 in the series with HCV replicon Luc Neo ET (Hepatitis C virus, 72 h) was below 10000 nM.

`Cc1ccc(N2C(=O)C(O)=C(C(=O)c3ccc(C(C)C)cc3)C2c2ccc(OC3CC3)cc2)nn1` (stereo not drawn) [Example 120, 5-(4-cyclopropoxy-phenyl)-3-hydroxy-4-(4-isopropyl-benzoyl)-1-(6-methyl-pyridazin-3-yl)-1,5-dihydro-pyrrol-2-one] gave a melting point of 285 to 288 °C. The EC50 at HCV NS5B genotype 1b (EC50_3DS_NS5B) is below 1000 nM. The EC50 in the series on HCV replicon Luc Neo ET (Hepatitis C virus, 72 h) is below 1000 nM.

Turning to `Cc1ccc(N2C(=O)C(O)=C(C(=O)c3ccc(C(C)(C)C)cc3)C2c2ccc(OC(F)(F)F)cc2)nn1` (stereo not drawn) [Example 123, 4-(4-tert-butyl-benzoyl)-3-hydroxy-1-(6-methyl-pyridazin-3-yl)-5-(4-trifluoromethoxy-phenyl)-1,5-dihydro-pyrrol-2-one], the melting point was in the range of 262 to 265 °C. Besides, the EC50 at HCV NS5B genotype 1b (EC50_3DS_NS5B) was below 1000 nM. Moreover, in the series with HCV replicon Luc Neo ET (Hepatitis C virus, 72 h), the EC50 is below 1000 nM.

The compound `Cc1ccc(N2C(=O)C(O)=C(C(=O)c3ccc(C4CCCCC4)cc3)C2c2ccc(OC(F)(F)F)cc2)nn1` (stereo not drawn) [Example 125, 4-(4-cyclohexyl-benzoyl)-3-hydroxy-1-(6-methyl-pyridazin-3-yl)-5-(4-trifluoromethoxy-phenyl)-1,5-dihydro-pyrrol-2-one] showed a melting point of 283 to 286 °C. On HCV NS5B genotype 1b (EC50_3DS_NS5B), this compound yielded an EC50 below 10000 nM. The EC50 with HCV replicon Luc Neo ET (Hepatitis C virus, 72 h) is below 10000 nM.

As to `Cc1cnc(N2C(=O)C(O)=C(C(=O)c3ccc(C(C)C)cc3)C2c2ccc(OC(F)(F)F)cc2)cn1` (stereo not drawn) [Example 128, 3-hydroxy-4-(4-isopropyl-benzoyl)-1-(5-methyl-pyrazin-2-yl)-5-(4-trifluoromethoxy-phenyl)-1,5-dihydro-pyrrol-2-one], the melting point was 266 to 268 °C. Also, the EC50 at HCV NS5B genotype 1b (EC50_3DS_NS5B) was below 1000 nM. Further, the EC50 in the series with HCV replicon Luc Neo ET (Hepatitis C virus, 72 h) is below 10000 nM.

In turn, `COc1ccc(N2C(=O)C(O)=C(C(=O)c3ccc(C(C)C)cc3)C2c2ccc(OC(F)(F)F)cc2)nn1` (stereo not drawn) [Example 129, 3-hydroxy-4-(4-isopropyl-benzoyl)-1-(6-methoxy-pyridazin-3-yl)-5-(4-trifluoromethoxy-phenyl)-1,5-dihydro-pyrrol-2-one] came in with a melting point of 271 °C. At HCV NS5B genotype 1b (EC50_3DS_NS5B), this compound returned an EC50 below 1000 nM. The EC50 with HCV replicon Luc Neo ET (Hepatitis C virus, 72 h) was below 10000 nM.

`CC(C)c1ccc(C(=O)C2=C(O)C(=O)N(c3cccn(C)c3=O)C2c2ccc(OC(F)(F)F)cc2)cc1` (stereo not drawn) [Example 130, 3-[3-hydroxy-4-(4-isopropyl-benzoyl)-2-oxo-5-(4-trifluoromethoxy-phenyl)-2,5-dihydro-pyrrol-1-yl]-1-methyl-1H-pyridin-2-one]: the melting point was 207 °C. At HCV NS5B genotype 1b (EC50_3DS_NS5B), this compound displayed an EC50 below 10000 nM. Moreover, in the series on HCV replicon Luc Neo ET (Hepatitis C virus, 72 h), the EC50 is below 10000 nM.

For `Cc1ccc(N2C(=O)C(O)=C(C(=O)c3ccc(CC(C)C)cc3)C2c2ccc(OC(F)(F)F)cc2)nn1` (stereo not drawn) [Example 131, 3-hydroxy-4-(4-isobutyl-benzoyl)-1-(6-methyl-pyridazin-3-yl)-5-(4-trifluoromethoxy-phenyl)-1,5-dihydro-pyrrol-2-one], the melting point is 260 °C. At HCV NS5B genotype 1b (EC50_3DS_NS5B), the EC50 is below 1000 nM. Further, the EC50 in the series with HCV replicon Luc Neo ET (Hepatitis C virus, 72 h) was below 10000 nM.

In turn, `Cc1ccc(N2C(=O)C(Cl)=C(C(=O)c3ccc(C(C)C)cc3)C2c2ccc(OC(F)(F)F)cc2)nn1` (stereo not drawn) [Example 138, 3-chloro-4-(4-isopropyl-benzoyl)-1-(6-methyl-pyridazin-3-yl)-5-(4-trifluoromethoxy-phenyl)-1,5-dihydro-pyrrol-2-one] showed a melting point of 293 °C. At HCV NS5B genotype 1b (EC50_3DS_NS5B), this compound came in with an EC50 below 10000 nM. Besides, the EC50 in the series with HCV replicon Luc Neo ET (Hepatitis C virus, 72 h) was below 10000 nM.

On to `C=C(C)c1ccc(C(=O)C2=C(O)C(=O)N(c3ccc(C)nn3)C2c2ccc(OC(F)(F)F)cc2)cc1` (stereo not drawn) [Example 142, 3-hydroxy-4-(4-isopropenyl-benzoyl)-1-(6-methyl-pyridazin-3-yl)-5-(4-trifluoromethoxy-phenyl)-1,5-dihydro-pyrrol-2-one], for which the melting point was 253 °C. For the same compound, the EC50 at HCV NS5B genotype 1b (EC50_3DS_NS5B) is below 1000 nM. Moreover, the EC50 in the series on HCV replicon Luc Neo ET (Hepatitis C virus, 72 h) is below 10000 nM.

In turn, `Cc1ccc(N2C(=O)C(O)=C(C(=O)c3ccc(C(C)C)cc3)C2c2ccc(OC3CCOCC3)cc2)nn1` (stereo not drawn) [Example 143, 3-hydroxy-4-(4-isopropyl-benzoyl)-1-(6-methyl-pyridazin-3-yl)-5-[4-(tetrahydro-pyran-4-yloxy)-phenyl]-1,5-dihydro-pyrrol-2-one] registered a melting point of 275 °C. Further, the EC50 at HCV NS5B genotype 1b (EC50_3DS_NS5B) was below 10000 nM. Besides, the EC50 in the series on HCV replicon Luc Neo ET (Hepatitis C virus, 72 h) is below 10000 nM.

For `CC(C)c1ccc(C(=O)C2=C(O)C(=O)N(c3ccc(O)nn3)C2c2ccc(OC(F)(F)F)cc2)cc1` (stereo not drawn) [Example 159, 3-hydroxy-1-(6-hydroxy-pyridazin-3-yl)-4-(4-isopropyl-benzoyl)-5-(4-trifluoromethoxy-phenyl)-1,5-dihydro-pyrrol-2-one], the melting point came out at 255 °C. On HCV NS5B genotype 1b (EC50_3DS_NS5B), this compound displayed an EC50 below 1000 nM. Also, the EC50 with HCV replicon Luc Neo ET (Hepatitis C virus, 72 h) was below 10000 nM.

`C=C(C)c1ccc(C2C(C(=O)c3ccc(C(C)C)cc3)=C(O)C(=O)N2c2ccc(C)nn2)cc1` (stereo not drawn) [Example 160, 3-hydroxy-5-(4-isopropenyl-phenyl)-4-(4-isopropyl-benzoyl)-1-(6-methyl-pyridazin-3-yl)-1,5-dihydro-pyrrol-2-one] displayed a melting point of 274 °C. The same compound showed an EC50 at HCV NS5B genotype 1b (EC50_3DS_NS5B) below 1000 nM. Also, the EC50 with HCV replicon Luc Neo ET (Hepatitis C virus, 72 h) is below 10000 nM.

On to `CC(C)c1ccc(C(=O)C2=C(O)C(=O)N(c3ccc(OCc4ccccc4)nn3)C2c2ccc(OC(F)(F)F)cc2)cc1` (stereo not drawn) [Example 161, 1-(6-benzyloxy-pyridazin-3-yl)-3-hydroxy-4-(4-isopropyl-benzoyl)-5-(4-trifluoromethoxy-phenyl)-1,5-dihydro-pyrrol-2-one], for which the melting point came out at 269 °C. Further, on HCV NS5B genotype 1b (EC50_3DS_NS5B), the EC50 is below 1000 nM. Besides, in the series with HCV replicon Luc Neo ET (Hepatitis C virus, 72 h), the EC50 is below 10000 nM.

`Cc1ccc(N2C(=O)C(O)=C(C(=O)c3ccc(C(C)C)cc3)C2c2ccc(OC(C)C)nc2)nn1` (stereo not drawn) [Example 165, 3-hydroxy-5-(6-isopropoxy-pyridin-3-yl)-4-(4-isopropyl-benzoyl)-1-(6-methyl-pyridazin-3-yl)-1,5-dihydro-pyrrol-2-one] showed a melting point of 282 °C. On HCV NS5B genotype 1b (EC50_3DS_NS5B), this compound showed an EC50 below 1000 nM. Also, the EC50 with HCV replicon Luc Neo ET (Hepatitis C virus, 72 h) is below 1000 nM.

Regarding `Cc1ccc(N2C(=O)C(O)=C(C(=O)c3ccc(C(C)C)cc3)C2c2ccc(OC(C)C)nc2)nn1.Cl` (stereo not drawn) [Example 167, 3-hydroxy-5-(6-isopropoxy-pyridin-3-yl)-4-(4-isopropyl-benzoyl)-1-(6-methyl-pyridazin-3-yl)-1,5-dihydro-pyrrol-2-one; hydrochloride], the melting point stood at 280 °C. Also, at HCV NS5B genotype 1b (read-out: EC50_3DS_NS5B), the EC50 was below 1000 nM. Also, in the series with HCV replicon Luc Neo ET, the EC50 is below 1000 nM.
